Assay results reported in patent US10874670B2, “Substituted fused heteroaromatic compounds as kinase inhibitors and the use thereof” (IMPACT THERAPEUTICS, INC., priority 2017, dated 2020).
Where two headings read alike, the source gives them in different places.

Assays:
[1] = test system: human breast cancer cell MDA-MB-468; experiment: MTT assay, growth of MDA-MB-468 cells; format: cell-based; details: for IC50: Homo sapiens, MDA-MB-468, 168 h, 7 days, MTT
Method: Inhibitory Effects of N,N-dimethyl-3-(4-(1-(tetrahydro-2H-pyran-4-yl)-[1,2,4]triazolo[4,3-a]quinoxalin-8-yl)phenoxy)propan-1-amine and its Analogues on the Growth of Human Breast Cancer Cell MDA-MB-468 were Determined by MTT Assay
MDA-MB-468 cells were digested by trypsinase, centrifuged at 800 rpm for 5 minutes, the supernatant was discarded, resuspended with fresh medium (RPMI 1640 medium+10% FBS) and counted. The cells were seeded into 96-well cell culture plate with appropriate cell density and incubated overnight in a 37° C. 5% CO2 incubator. The stock solutions of the tested compound and the reference compound AZD0156 were serially diluted to 8 concentrations by DMSO at the ratios of 1:3 and 1:10, respectively: the first concentration was 100 μM or 1 μM, and the last concentration was negative control of DMSO (0 μM, the final concentration of DMSO was 1%). 5 μL of each concentration was added to 120 μL of medium (25 times diluted) and mixed by shaking. The overnight cells were taken and the culture medium was removed, 195 μL of fresh medium was added to each well, and 5 μL of diluted medium containing the corresponding concentration of the tested sample was added respectively, and the culture plate was then placed in the 5% CO2 cell culture incubator at 37° C. for 7 days (On the fourth day, the medium containing drugs was removed and fresh medium containing drugs was added for continuous cultivation). After removing the original solution, 100 μL of fresh serum-free DMEM medium containing MTT (0.5 mg/mL) was added to each well, the culture was continued. After 4 hours, the original solution was removed, 100 μL of DMSO was added into each well, the 96-well plates were shaken away from light for 10 minutes and placed in a multi-function reader to read the absorbance at the wavelength of 552/630/690 nm. GraphPad Prism 6.0 was used to analyze the data. The inhibitory activity of compounds on cell proliferation was plotted based on cell viability and compound concentration. The IC50 value was fitted by a sigmoidal dose response curve equation Y=100/(1+10^(Log C−Log IC50)), where C was the concentration of compound.
Table 4 summarizes the inhibitory effects of compounds on the growth of human breast cancer cell MDA-MB-468 (IC50).

[2] = test system: human colon cancer cell SW620; experiment: MTT assay, growth of SW620 cells, compounds combined with CPT-11; format: cell-based; details: for IC50: Homo sapiens, SW-620, 120 h, combined with CPT-11 (205 nM medium), 5 days, MTT
Summary of the method: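 SW620 cells in RPMI 1640/10% FBS were exposed to 8-point compound dilutions (top 10 or 1 μM, 1% DMSO final) plus CPT-11 (205 nM in added medium) for 5 days at 37 °C. Viability by MTT (0.5 mg/mL, 4 h) absorbance; IC50 from sigmoidal fit.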

ATM enzyme (human) = ATM enzyme (human) (Homo sapiens, UniProt Q13315); experiment: ATM kinase assay (HTRF, GST-cMyc-p53 substrate); format: biochemical; details: for inhibition at 1 µM: C 1 μm (final concentration of compound); for inhibition at 0.01 µM: C 0.01 μm (final concentration of compound); for inhibition at 0.1 µM: C 0.1 μm (final concentration of compound)
ATM enzyme (human), sequence (Q13315 whole entry): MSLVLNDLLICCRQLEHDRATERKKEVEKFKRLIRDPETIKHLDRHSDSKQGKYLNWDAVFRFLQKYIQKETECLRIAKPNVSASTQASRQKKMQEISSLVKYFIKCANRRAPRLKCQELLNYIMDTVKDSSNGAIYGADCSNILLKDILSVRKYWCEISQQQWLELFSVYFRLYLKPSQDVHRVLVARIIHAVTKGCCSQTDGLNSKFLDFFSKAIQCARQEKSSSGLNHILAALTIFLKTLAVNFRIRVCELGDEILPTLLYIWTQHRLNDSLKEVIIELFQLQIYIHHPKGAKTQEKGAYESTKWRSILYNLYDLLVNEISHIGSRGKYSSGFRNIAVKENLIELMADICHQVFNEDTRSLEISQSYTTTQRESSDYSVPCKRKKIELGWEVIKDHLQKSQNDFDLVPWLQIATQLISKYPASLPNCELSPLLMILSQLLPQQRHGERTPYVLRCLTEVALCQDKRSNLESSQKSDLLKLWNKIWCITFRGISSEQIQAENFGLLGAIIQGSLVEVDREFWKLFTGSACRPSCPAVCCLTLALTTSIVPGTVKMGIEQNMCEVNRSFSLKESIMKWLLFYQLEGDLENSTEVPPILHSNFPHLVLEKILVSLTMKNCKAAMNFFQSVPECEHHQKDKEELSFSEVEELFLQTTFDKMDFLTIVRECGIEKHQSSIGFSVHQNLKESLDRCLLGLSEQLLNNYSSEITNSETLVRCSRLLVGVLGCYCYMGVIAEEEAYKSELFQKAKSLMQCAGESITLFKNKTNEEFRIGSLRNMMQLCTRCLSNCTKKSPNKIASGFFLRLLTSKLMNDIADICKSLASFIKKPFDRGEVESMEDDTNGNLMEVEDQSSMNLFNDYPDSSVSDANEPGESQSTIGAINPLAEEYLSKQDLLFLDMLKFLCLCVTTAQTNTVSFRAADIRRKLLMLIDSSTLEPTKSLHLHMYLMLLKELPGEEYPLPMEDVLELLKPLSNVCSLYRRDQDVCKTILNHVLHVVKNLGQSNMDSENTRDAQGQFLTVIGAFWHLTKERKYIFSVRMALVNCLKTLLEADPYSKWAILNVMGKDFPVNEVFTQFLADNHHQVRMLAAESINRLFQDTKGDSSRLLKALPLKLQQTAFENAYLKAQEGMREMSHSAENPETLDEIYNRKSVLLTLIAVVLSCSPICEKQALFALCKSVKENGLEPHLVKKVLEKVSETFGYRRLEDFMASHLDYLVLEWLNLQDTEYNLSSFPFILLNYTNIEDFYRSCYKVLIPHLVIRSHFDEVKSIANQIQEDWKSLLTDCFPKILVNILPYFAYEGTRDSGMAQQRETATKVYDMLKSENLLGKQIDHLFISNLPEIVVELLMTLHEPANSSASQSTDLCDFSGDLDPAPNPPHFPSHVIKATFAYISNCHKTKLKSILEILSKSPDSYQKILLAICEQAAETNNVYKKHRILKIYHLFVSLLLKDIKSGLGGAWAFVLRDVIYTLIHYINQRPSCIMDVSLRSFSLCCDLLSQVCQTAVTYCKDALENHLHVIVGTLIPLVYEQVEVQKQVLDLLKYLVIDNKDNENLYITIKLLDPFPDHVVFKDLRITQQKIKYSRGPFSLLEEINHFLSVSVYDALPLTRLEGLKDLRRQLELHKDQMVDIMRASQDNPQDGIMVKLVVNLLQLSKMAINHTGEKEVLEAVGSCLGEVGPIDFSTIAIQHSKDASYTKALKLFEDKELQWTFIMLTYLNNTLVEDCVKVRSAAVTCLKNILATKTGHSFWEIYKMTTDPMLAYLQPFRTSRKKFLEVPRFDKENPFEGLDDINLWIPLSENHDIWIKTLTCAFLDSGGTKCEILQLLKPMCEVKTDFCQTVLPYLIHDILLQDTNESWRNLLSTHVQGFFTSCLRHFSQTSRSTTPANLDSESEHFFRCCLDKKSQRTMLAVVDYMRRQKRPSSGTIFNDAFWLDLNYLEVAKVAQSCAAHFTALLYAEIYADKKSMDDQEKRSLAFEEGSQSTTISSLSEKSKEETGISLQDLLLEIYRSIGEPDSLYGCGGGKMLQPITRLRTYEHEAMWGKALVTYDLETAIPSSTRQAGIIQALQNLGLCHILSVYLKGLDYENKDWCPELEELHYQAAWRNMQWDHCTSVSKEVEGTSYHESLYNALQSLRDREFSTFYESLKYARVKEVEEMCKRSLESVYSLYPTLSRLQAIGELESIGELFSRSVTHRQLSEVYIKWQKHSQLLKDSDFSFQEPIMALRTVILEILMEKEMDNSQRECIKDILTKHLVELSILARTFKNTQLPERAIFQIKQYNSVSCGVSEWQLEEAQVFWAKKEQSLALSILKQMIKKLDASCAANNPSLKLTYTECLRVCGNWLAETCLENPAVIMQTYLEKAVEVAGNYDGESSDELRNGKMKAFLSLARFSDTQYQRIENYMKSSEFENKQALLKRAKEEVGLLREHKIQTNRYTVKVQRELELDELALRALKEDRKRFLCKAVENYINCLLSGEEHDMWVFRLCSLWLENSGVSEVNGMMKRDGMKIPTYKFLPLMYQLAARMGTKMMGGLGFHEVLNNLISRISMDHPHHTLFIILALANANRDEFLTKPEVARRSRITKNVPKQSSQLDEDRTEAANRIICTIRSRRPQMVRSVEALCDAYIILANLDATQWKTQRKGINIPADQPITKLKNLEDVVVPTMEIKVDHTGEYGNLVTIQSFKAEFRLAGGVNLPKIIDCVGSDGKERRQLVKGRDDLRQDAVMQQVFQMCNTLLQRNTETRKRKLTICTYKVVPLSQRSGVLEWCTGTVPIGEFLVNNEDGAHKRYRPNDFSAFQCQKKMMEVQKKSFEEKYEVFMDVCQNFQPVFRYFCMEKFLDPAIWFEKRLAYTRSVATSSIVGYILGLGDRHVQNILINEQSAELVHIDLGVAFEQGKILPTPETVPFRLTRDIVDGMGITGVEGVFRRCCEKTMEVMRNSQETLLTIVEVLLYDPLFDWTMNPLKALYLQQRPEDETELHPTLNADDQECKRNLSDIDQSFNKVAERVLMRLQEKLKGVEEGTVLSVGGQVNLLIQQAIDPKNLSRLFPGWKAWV
Summary of the method: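 Reaction with GST-cMyc-p53 substrate started with Mg/ATP, run 30 minutes at room temperature, then stopped with EDTA. Phospho-p53 (Ser15) detected by HTRF with Eu-labelled anti-phospho antibody and d2 anti-GST, signal as 10000×(Em665/Em620). Duplicates; IC50 from a curve fit with slope factor.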

[3] = 0.5 h, read-out: Inh (%) of ATM kinase
[4] = 0.5 h, C 0.001 μm (final concentration of compound), read-out: Inh (%) of ATM kinase

IC50 [1] [nM] | IC50 [2] [nM] | inhibition at 1 µM (ATM enzyme (human); [3]) [%] | inhibition at 0.01 µM (ATM enzyme (human); [3]) [%] | inhibition at 0.1 µM (ATM enzyme (human); [3]) [%] | SMILES | further results
4710 | 4250 | 18 | – | – | CN(C)CCCOc1ccc(-c2ccc3ncc4cnc(C5CCOCC5)n4c3c2)cc1 [Example 37, N,N-dimethyl-3-(4-(1-(tetrahydro-2H-pyran-4-yl)imidazo[1,5-a]quinoxalin-8-yl)phenoxy)propan-1-amine] | –
236 | 173 | 100 | 50 | 93 | CN(C)C1CCN(c2ccc(-c3ccc4ncc5nnc(C6CCOCC6)n5c4c3)cc2)CC1 [Example 12, N,N-dimethyl-1-(4-(1-(tetrahydro-2H-pyran-4-yl)-[1,2,4]triazolo[4,3-a]quinoxalin-8-yl)phenyl)piperidin-4-amine] | –
305 | 199 | 100 | 66 | 96 | CNC1CCN(c2ccc(-c3ccc4ncc5nnc(C6CCOCC6)n5c4n3)cc2)CC1 [Example 74, N-methyl-1-(4-(9-(tetrahydro-2H-pyran-4-yl)pyrido[3,2-e][1,2,4]triazolo[4,3-a]pyrazin-2-yl)phenyl)piperidin-4-amine] | –
> 100000 | > 100000 | 0 | – | – | CN(C)Cc1ccc(-c2cc3c(cn2)ncc2nnc(C4CCOCC4)n23)cc1 [Example 68, N,N-dimethyl-1-(4-(1-(tetrahydro-2H-pyran-4-yl)pyrido[3,4-e][1,2,4]triazolo[4,3-a]pyrazin-8-yl)phenyl)methanamine] | –
523 | > 10000 | 98 | – | – | CN(C)C1CCN(c2ccc(-c3ccc4ncc5nnc(C6CCOCC6)n5c4c3)nc2)CC1 [Example 52, N,N-dimethyl-1-(6-(1-(tetrahydro-2H-pyran-4-yl)-[1,2,4]triazolo[4,3-a]quinoxalin-8-yl)pyridin-3-yl)piperidin-4-amine] | –
1580 | 1030 | 100 | – | – | CN(C)C1CCN(c2ccc(-c3ccc4ncc5nnc(C6CCOCC6)n5c4c3)c(Cl)c2)CC1 [Example 49, 1-(3-chloro-4-(1-(tetrahydro-2H-pyran-4-yl)-[1,2,4]triazolo[4,3-a]quinoxalin-8-yl)phenyl)-N,N-dimethylpiperidin-4-amine] | –
> 100000 | > 10000 | 80 | – | – | Cc1cc(N2CCC(N(C)C)CC2)ccc1-c1ccc2ncc3nnc(C4CCOCC4)n3c2c1 [Example 50, N,N-dimethyl-1-(3-methyl-4-(1-(tetrahydro-2H-pyran-4-yl)-[1,2,4]triazolo[4,3-a]quinoxalin-8-yl)phenyl)piperidin-4-amine] | –
> 100000 | > 10000 | 4 | – | – | CNC1CCN(c2ccc(-c3cc4c(cn3)ncc3nnc(C5CCOCC5)n34)cc2)CC1 [Example 70, N-methyl-1-(4-(1-(tetrahydropyran-4-yl)pyrido[3,4-e][1,2,4]triazolo[4,3-a]pyrazin-8-yl)phenyl)piperidin-4-amine] | –
> 100000 | > 100000 | 96 | 7 | 47 | CN(C)CCCOc1ccc(-c2ccc3ncc4nnc(C5CCOCC5)n4c3c2)nc1 [Example 5, N,N-dimethyl-3-((6-(1-(tetrahydro-2H-pyran-4-yl)-[1,2,4]triazolo[4,3-a]quinoxalin-8-yl)pyridin-3-yl)oxy)propan-1-amine] | –
430 | 589 | 100 | – | – | CNC1CCN(c2ccc(-c3ccc4ncc5nnc(CN6CCOCC6)n5c4c3)cc2)CC1 [Example 66, N-methyl-1-(4-(1-(morpholinomethyl)-[1,2,4]triazolo[4,3-a]quinoxalin-8-yl)phenyl)piperidin-4-amine] | –
15 | 11.8 | 100 | 98 | 100 | C[C@@H]1CN(c2nnc3cnc4ccc(-c5ccc(OCCCN(C)C)c(C(F)(F)F)c5)cc4n23)C[C@H](C)N1C [Example 57, N,N-dimethyl-3-(2-(trifluoromethyl)-4-(1-((3S,5R)-3,4,5-trimethylpiperazin-1-yl)-[1,2,4]triazolo[4,3-a]quinoxalin-8-yl)phenoxy)propan-1-amine] | inhibitory effect on the growth of MDA-MB-468 cells (in words) ([1]; MTT assay): comparable to AZD0156; inhibitory effect on the growth of SW620 cells (in words) ([2]; MTT assay, combined with CPT-11): comparable to AZD0156; inhibition at 0.001 µM (ATM enzyme (human); [4]): 60%; inhibition at 0.001 µM (ATM enzyme (human); at 1 nM, read-out: inhibitory effect on ATM kinase): > 50%
> 100000 | > 100000 | 34 | – | – | CN(C)C1CCC(c2ccc(-c3ccc4ncc5nnc(C6CCOCC6)n5c4c3)cc2)CC1 (stereo not drawn) [Example 18, N,N-dimethyl-4-(4-(1-(tetrahydro-2H-pyran-4-yl)-[1,2,4]triazolo[4,3-a]quinoxalin-8-yl)phenyl)cyclohexan-1-amine] | –
68.8 | 47.5 | 100 | 89 | 100 | C[C@@H]1CN(c2nnc3cnc4ccc(-c5ccc(N6CCC(N(C)C)CC6)cc5)cc4n23)C[C@H](C)N1C [Example 58, N,N-dimethyl-1-(4-(1-((3S,5R)-3,4,5-trimethylpiperazin-1-yl)-[1,2,4]triazolo[4,3-a]quinoxalin-8-yl)phenyl)piperidin-4-amine] | inhibition at 0.001 µM (ATM enzyme (human); [4]): 38%
422 | 413 | 100 | – | – | CN(C)CCCOc1ccc(-c2ccc3ncc4nnc(N5CCN(C)CC5)n4c3c2)cc1 [Example 22, N,N-dimethyl-3-(4-(1-(4-methylpiperazin-1-yl)-[1,2,4]triazolo[4,3-a]quinoxalin-8-yl)phenoxy)propan-1-amine] | –
950 | 328 | – | – | – | CN(C)CCCOc1ccc(-c2ccc3ncc4nnc(C5CCOCC5)n4c3c2)cc1 [Example 4, N,N-dimethyl-3-(4-(1-(tetrahydro-2H-pyran-4-yl)-[1,2,4]triazolo[4,3-a]quinoxalin-8-yl)phenoxy)propan-1-amine] | IC50 (ATM enzyme (human); 10-concentration dilution series, read-out: IC50, inhibition of ATM kinase): 9 nM; inhibition at 10 µM (ATM enzyme (human); 0.5 h, C 10 μm (final concentration of compound), read-out: Inh (%) of ATM kinase): 100%; inhibitory effect on ATM kinase (in words) (ATM enzyme (human); ATM kinase (human) assay): good inhibitory effect
145 | 128 | 100 | 72 | 96 | CN(C)C1CCN(c2ccc(-c3ccc4ncc5nnc(C6CCOCC6)n5c4c3)cc2C(F)(F)F)CC1 [Example 47, N,N-dimethyl-1-(4-(1-(tetrahydro-2H-pyran-4-yl)-[1,2,4]triazolo[4,3-a]quinoxalin-8-yl)-2-(trifluoromethyl)phenyl)piperidin-4-amine] | –
> 10000 | > 10000 | 14 | – | – | CN(C)CCCOc1ccc(-c2cc3c(cn2)ncc2nnc(C4CCOCC4)n23)cc1 [Example 30, N,N-dimethyl-3-(4-(1-(tetrahydro-2H-pyran-4-yl)pyrido[3,4-e][1,2,4]triazolo[4,3-a]pyrazin-8-yl)phenoxy)propan-1-amine] | –
262 | 818 | 100 | – | – | CN(C)C1CCN(c2ccc(-c3ccc4ncc5nnc(C6CCOCC6)n5c4n3)cn2)CC1 [Example 76, N,N-dimethyl-1-(5-(9-(tetrahydro-2H-pyran-4-yl)pyrido[3,2-e][1,2,4]triazolo[4,3-a]pyrazin-2-yl)pyridin-2-yl)piperidin-4-amine] | –
183 | 152 | 100 | 67 | 94 | CN(C)C1CCN(c2ccc(-c3ccc4ncc5nnc(C6CCOCC6)n5c4c3)cc2F)CC1 [Example 44, 1-(2-fluoro-4-(1-(tetrahydro-2H-pyran-4-yl)-[1,2,4]triazolo[4,3-a]quinoxalin-8-yl)phenyl)-N,N-dimethylpiperidin-4-amine] | –
